# Source: US11214594B2, “Antimicrobial peptide having synergistic antibacterial effect with antibiotics on multidrug resistant bacteria, and use thereof” (priority 2016, dated 2022)
# Where a SMILES comes first, the peptide text is derived from it. [ ]: non-standard residue; d: D form.
# Experiments:
# [1] = test system: E. coli; test: microbe, parasite or virus in culture; type: cell-based, Escherichia coli; conditions: 16 h
# Procedure, shortened: (§1)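 Broth microdilution in MH medium: bacterial strains diluted to 2×10^6 CFU were mixed with equal volumes of peptide serially diluted twofold in MH medium.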
# [2] = test system: MDREC 1229; test: microbe, parasite or virus in culture; type: cell-based, Escherichia coli
# Procedure, shortened: as §1
# [3] = test system: E. coli; test: MIC of antibiotic during combined treatment with antimicrobial peptide; type: cell-based, Escherichia coli; conditions: for Synergistic effect of antibacterial activity with existing antibiotics compared with PapMA-1: E. coli and MDREC1229; for Antibiotic MIC, Erythromycin / Antibiotic MIC, Linezolid / Antibiotic MIC, Vancomycin: E. coli
# Procedure, shortened: (§2)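 Read-out is the MIC of each combined solution, obtained from MH-medium dilutions of antibiotic added well by well, with a reversed-condition run as well.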
# [4] = test system: multi-drug resistant bacteria; test: MIC, summary statements for multi-drug resistant bacteria; type: cell-based
# Method: For the antibacterial activity, a minimal inhibitory concentration (MIC) of a peptide in which fungus bodies were not split in an MH medium with sufficient nutrients was measured.
# Specifically, the strains described in the following [Table 2] were purchased and diluted with an MH medium such that the number of bacteria was 2×10^6 colony-forming units (CFUs), 100 μl of each of the diluted strains was aliquoted into a 96-well microtiter plate, and then 100 μl of a peptide solution diluted with the MH medium (solution diluted stepwise at 2: 1) was added to each well.
# [5] = test system: A. baumannii; test: MIC of antibiotic during combined treatment with antimicrobial peptide; type: cell-based, Acinetobacter baumannii; conditions: for Synergistic effect of antibacterial activity with existing antibiotics compared with PapMA-1: A. baumannii and MDRAB 12035; for Antibiotic MIC, Erythromycin / Antibiotic MIC, Linezolid / Antibiotic MIC, Vancomycin: A. baumannii
# Procedure, shortened: as §2
# [6] = test system: MDRST 8009; type: cell-based, Salmonella typhimurium; conditions: agent alone
# Procedure, shortened: as §1
# [7] = erythromycin combined with peptide at 1 μg/ml
# [8] = erythromycin combined with peptide at 2 μg/ml
# [9] = erythromycin combined with peptide at 4 μg/ml
# [10] = erythromycin combined with peptide at 6 μg/ml
# [11] = erythromycin combined with peptide at 8 μg/ml
# [12] = erythromycin combined with peptide at 16 μg/ml
# [13] = erythromycin combined with peptide at 32 μg/ml
# [14] = erythromycin combined with peptide at 64 μg/ml
# [15] = linezolid combined with peptide at 1 μg/ml
# [16] = linezolid combined with peptide at 2 μg/ml
# [17] = linezolid combined with peptide at 4 μg/ml
# [18] = linezolid combined with peptide at 6 μg/ml
# [19] = linezolid combined with peptide at 8 μg/ml
# [20] = linezolid combined with peptide at 16 μg/ml
# [21] = linezolid combined with peptide at 32 μg/ml
# [22] = linezolid combined with peptide at 64 μg/ml
# [23] = vancomycin combined with peptide at 1 μg/ml
# [24] = vancomycin combined with peptide at 2 μg/ml
# [25] = vancomycin combined with peptide at 4 μg/ml
# [26] = vancomycin combined with peptide at 6 μg/ml
# [27] = vancomycin combined with peptide at 8 μg/ml
# [28] = vancomycin combined with peptide at 16 μg/ml
# [29] = vancomycin combined with peptide at 32 μg/ml
# [30] = vancomycin combined with peptide at 64 μg/ml
# [31] = combined with peptide at 1 μg/ml
# [32] = combined with peptide at 2 μg/ml
# [33] = combined with peptide at 4 μg/ml
# [34] = combined with peptide at 6 μg/ml
# [35] = combined with peptide at 8 μg/ml
# [36] = combined with peptide at 16 μg/ml
# [37] = combined with peptide at 32 μg/ml
# [38] = combined with peptide at 64 μg/ml
structure (smiles),measurement,setting,value
"CC[C@H](C)[C@H](NC(=O)[C@H](CCCCN)NC(=O)[C@H](Cc1c[nH]c2ccccc12)NC(=O)[C@@H](N)CCCNC(=N)N)C(=O)N[C@@H](Cc1ccccc1)C(=O)N[C@@H](CCCCN)C(=O)N[C@@H](CCCCN)C(=O)N[C@H](C(=O)N[C@H](CCCCN)C(=O)N[C@@H](CCCCN)C(=O)N[C@@H](CC(C)C)C(=O)N[C@@H](CC(C)C)C(=O)N[C@@H](Cc1c[nH]cn1)C(=O)N[C@@H](CCCCN)C(=O)N[C@@H](Cc1ccccc1)C(=O)N[C@@H](CCCCN)C(=O)N[C@@H](CCCCN)C(=O)N[C@@H](Cc1ccccc1)C(N)=O)[C@@H](C)CC [PapMA-17, RWK IFK KIk KLL HKF KKF-NH2] (H-RWKIFKKI[dK]KLLHKFKKF-NH2; N-terminus assumed)",Minimal inhibitory concentration MIC,[1],16 µg/mL
same,Minimal inhibitory concentration MIC,[2],16 µg/mL
same,"Peptide MIC, peptide alone",[2],16 µg/mL
same,Synergistic effect of antibacterial activity with existing antibiotics compared with PapMA-1,[3],higher level than the PapMA-1 peptide
same,"Antibiotic MIC, Erythromycin",[3]; [7],128 µg/mL
same,"Antibiotic MIC, Erythromycin",[3]; [8],16 µg/mL
same,"Antibiotic MIC, Erythromycin",[3]; [9],8 µg/mL
same,"Antibiotic MIC, Erythromycin",[3]; [10],2 µg/mL
same,"Antibiotic MIC, Erythromycin",[3]; [11],1 µg/mL
same,"Antibiotic MIC, Erythromycin",[3]; [12],0 µg/mL
same,"Antibiotic MIC, Erythromycin",[3]; [13],0 µg/mL
same,"Antibiotic MIC, Erythromycin",[3]; [14],0 µg/mL
same,"Antibiotic MIC, Linezolid",[3]; [15],>128 µg/mL
same,"Antibiotic MIC, Linezolid",[3]; [16],>128 µg/mL
same,"Antibiotic MIC, Linezolid",[3]; [17],32 µg/mL
same,"Antibiotic MIC, Linezolid",[3]; [18],16 µg/mL
same,"Antibiotic MIC, Linezolid",[3]; [19],8 µg/mL
same,"Antibiotic MIC, Linezolid",[3]; [20],0 µg/mL
same,"Antibiotic MIC, Linezolid",[3]; [21],0 µg/mL
same,"Antibiotic MIC, Linezolid",[3]; [22],0 µg/mL
same,"Antibiotic MIC, Vancomycin",[3]; [23],>128 µg/mL
same,"Antibiotic MIC, Vancomycin",[3]; [24],>128 µg/mL
same,"Antibiotic MIC, Vancomycin",[3]; [25],128 µg/mL
same,"Antibiotic MIC, Vancomycin",[3]; [26],32 µg/mL
same,"Antibiotic MIC, Vancomycin",[3]; [27],16 µg/mL
same,"Antibiotic MIC, Vancomycin",[3]; [28],0 µg/mL
same,"Antibiotic MIC, Vancomycin",[3]; [29],0 µg/mL
same,"Antibiotic MIC, Vancomycin",[3]; [30],0 µg/mL
same,Antibacterial activity relative to PapMA-1,[4],twice to four times higher
same,Synergistic effect of antibacterial activity with existing antibiotics compared with PapMA-1,[5],level similar to that of PapMA-1 peptide
same,"Antibiotic MIC, Erythromycin",[5]; [31],32 µg/mL
same,"Antibiotic MIC, Linezolid",[5]; [31],>128 µg/mL
same,"Antibiotic MIC, Vancomycin",[5]; [31],>128 µg/mL
same,"Antibiotic MIC, Erythromycin",[5]; [32],16 µg/mL
same,"Antibiotic MIC, Linezolid",[5]; [32],64 µg/mL
same,"Antibiotic MIC, Vancomycin",[5]; [32],>128 µg/mL
same,"Antibiotic MIC, Erythromycin",[5]; [33],8 µg/mL
same,"Antibiotic MIC, Linezolid",[5]; [33],32 µg/mL
same,"Antibiotic MIC, Vancomycin",[5]; [33],64 µg/mL
same,"Antibiotic MIC, Erythromycin",[5]; [34],2 µg/mL
same,"Antibiotic MIC, Linezolid",[5]; [34],32 µg/mL
same,"Antibiotic MIC, Vancomycin",[5]; [34],32 µg/mL
same,"Antibiotic MIC, Erythromycin",[5]; [35],0.25 µg/mL
same,"Antibiotic MIC, Linezolid",[5]; [35],8 µg/mL
same,"Antibiotic MIC, Vancomycin",[5]; [35],16 µg/mL
same,"Antibiotic MIC, Erythromycin",[5]; [36],0.125 µg/mL
same,"Antibiotic MIC, Linezolid",[5]; [36],2 µg/mL
same,"Antibiotic MIC, Vancomycin",[5]; [36],4 µg/mL
same,"Antibiotic MIC, Erythromycin",[5]; [37],0 µg/mL
same,"Antibiotic MIC, Linezolid",[5]; [37],0 µg/mL
same,"Antibiotic MIC, Vancomycin",[5]; [37],0 µg/mL
same,"Antibiotic MIC, Erythromycin",[5]; [38],0 µg/mL
same,"Antibiotic MIC, Linezolid",[5]; [38],0 µg/mL
same,"Antibiotic MIC, Vancomycin",[5]; [38],0 µg/mL
same,Minimal inhibitory concentration MIC,[6],64 µg/mL
"CC[C@H](C)[C@H](NC(=O)[C@H](CCCCN)NC(=O)[C@H](Cc1c[nH]c2ccccc12)NC(=O)[C@@H](N)CCCNC(=N)N)C(=O)N[C@@H](Cc1ccccc1)C(=O)N[C@@H](CCCCN)C(=O)N[C@@H](CCCCN)C(=O)N[C@H](C(=O)N1CCC[C@H]1C(=O)N[C@@H](CCCCN)C(=O)N[C@@H](CC(C)C)C(=O)N[C@@H](CC(C)C)C(=O)N[C@@H](Cc1c[nH]cn1)C(=O)N[C@@H](CCC(=O)O)C(=O)N[C@@H](Cc1ccccc1)C(=O)N[C@@H](CCCCN)C(=O)N[C@@H](CCCCN)C(=O)N[C@@H](Cc1ccccc1)C(N)=O)[C@@H](C)CC [PapMA-12, RWK IFK KIP KLL HEF KKF-NH2] (H-RWKIFKKIPKLLHEFKKF-NH2; N-terminus assumed)",Minimal inhibitory concentration MIC,[1],8 µg/mL
same,Minimal inhibitory concentration MIC,[2],16 µg/mL
same,"Peptide MIC, peptide alone",[2],16 µg/mL
same,Synergistic effect of antibacterial activity with existing antibiotics compared with PapMA-1,[3],higher level than the PapMA-1 peptide
same,"Antibiotic MIC, Erythromycin",[3]; [7],64 µg/mL
same,"Antibiotic MIC, Erythromycin",[3]; [8],32 µg/mL
same,"Antibiotic MIC, Erythromycin",[3]; [9],2 µg/mL
same,"Antibiotic MIC, Erythromycin",[3]; [10],1 µg/mL
same,"Antibiotic MIC, Erythromycin",[3]; [11],0 µg/mL
same,"Antibiotic MIC, Erythromycin",[3]; [12],0 µg/mL
same,"Antibiotic MIC, Erythromycin",[3]; [13],0 µg/mL
same,"Antibiotic MIC, Erythromycin",[3]; [14],0 µg/mL
same,"Antibiotic MIC, Linezolid",[3]; [15],>128 µg/mL
same,"Antibiotic MIC, Linezolid",[3]; [16],128 µg/mL
same,"Antibiotic MIC, Linezolid",[3]; [17],8 µg/mL
same,"Antibiotic MIC, Linezolid",[3]; [18],2 µg/mL
same,"Antibiotic MIC, Linezolid",[3]; [19],0 µg/mL
same,"Antibiotic MIC, Linezolid",[3]; [20],0 µg/mL
same,"Antibiotic MIC, Linezolid",[3]; [21],0 µg/mL
same,"Antibiotic MIC, Linezolid",[3]; [22],0 µg/mL
same,"Antibiotic MIC, Vancomycin",[3]; [23],>128 µg/mL
same,"Antibiotic MIC, Vancomycin",[3]; [24],128 µg/mL
same,"Antibiotic MIC, Vancomycin",[3]; [25],16 µg/mL
same,"Antibiotic MIC, Vancomycin",[3]; [26],8 µg/mL
same,"Antibiotic MIC, Vancomycin",[3]; [27],0 µg/mL
same,"Antibiotic MIC, Vancomycin",[3]; [28],0 µg/mL
same,"Antibiotic MIC, Vancomycin",[3]; [29],0 µg/mL
same,"Antibiotic MIC, Vancomycin",[3]; [30],0 µg/mL
same,Antibacterial activity relative to PapMA-1,[4],twice to four times higher
same,Synergistic effect of antibacterial activity with existing antibiotics compared with PapMA-1,[5],higher level than the PapMA-1 peptide
same,"Antibiotic MIC, Erythromycin",[5]; [31],16 µg/mL
same,"Antibiotic MIC, Linezolid",[5]; [31],128 µg/mL
same,"Antibiotic MIC, Vancomycin",[5]; [31],>128 µg/mL
same,"Antibiotic MIC, Erythromycin",[5]; [32],8 µg/mL
same,"Antibiotic MIC, Linezolid",[5]; [32],32 µg/mL
same,"Antibiotic MIC, Vancomycin",[5]; [32],64 µg/mL
same,"Antibiotic MIC, Erythromycin",[5]; [33],1 µg/mL
same,"Antibiotic MIC, Linezolid",[5]; [33],4 µg/mL
same,"Antibiotic MIC, Vancomycin",[5]; [33],8 µg/mL
same,"Antibiotic MIC, Erythromycin",[5]; [34],0.25 µg/mL
same,"Antibiotic MIC, Linezolid",[5]; [34],1 µg/mL
same,"Antibiotic MIC, Vancomycin",[5]; [34],2 µg/mL
same,"Antibiotic MIC, Erythromycin",[5]; [35],0 µg/mL
same,"Antibiotic MIC, Linezolid",[5]; [35],0 µg/mL
same,"Antibiotic MIC, Vancomycin",[5]; [35],0 µg/mL
same,"Antibiotic MIC, Erythromycin",[5]; [36],0 µg/mL
same,"Antibiotic MIC, Linezolid",[5]; [36],0 µg/mL
same,"Antibiotic MIC, Vancomycin",[5]; [36],0 µg/mL
same,"Antibiotic MIC, Erythromycin",[5]; [37],0 µg/mL
same,"Antibiotic MIC, Linezolid",[5]; [37],0 µg/mL
same,"Antibiotic MIC, Vancomycin",[5]; [37],0 µg/mL
same,"Antibiotic MIC, Erythromycin",[5]; [38],0 µg/mL
same,"Antibiotic MIC, Linezolid",[5]; [38],0 µg/mL
same,"Antibiotic MIC, Vancomycin",[5]; [38],0 µg/mL
same,Minimal inhibitory concentration MIC,[6],32 µg/mL
